ChEMBL document CHEMBL3244157, “Synthesis and antiinflammatory evaluation of substituted isophthalonitriles, trimesonitriles, benzonitriles, and terephthalonitriles” (J Med Chem, 1978)

Assays:
[1] = Toxicity in mouse assessed as overt effects; format: organism-based; conditions: in vivo
[2] = tested on: Rattus norvegicus; assay: Antiinflammatory activity in Long Evans rat assessed as reduction of carrageenan-induced pedal edema at 200 mg/kg, po administered 1 hr prior to carrageenan challenge measured after 3 hrs relative to control; format: functional; design: scale not given: the % may be the effect or the level left
[3] = tested on: Rattus norvegicus; assay: Antiinflammatory activity in Long Evans rat assessed as reduction of carrageenan-induced pedal edema at 100 mg/kg, po administered 1 hr prior to carrageenan challenge measured after 3 hrs relative to control; format: functional; design: scale not given: the % may be the effect or the level left
[4] = tested on: Rattus norvegicus; assay: Antiinflammatory activity in Long Evans rat assessed as reduction of carrageenan-induced pedal edema at 150 mg/kg, po administered 1 hr prior to carrageenan challenge measured after 3 hrs relative to control; format: functional; design: scale not given: the % may be the effect or the level left

Compound: Cc1cccc(C#N)c1
- LD50 [1]: > 300 mg/kg
- Activity [2]: 20%

Compound: N#Cc1c(N)c(Cl)c(Cl)c(C#N)c1Cl
- LD50 [1]: > 300 mg/kg
- Activity [2]: 25%

Compound: N#Cc1cccc(C#N)c1
- LD50 [1]: 178 mg/kg
- Activity [2]: 35%

Compound: N#Cc1ccc(Cl)cc1
- LD50 [1]: > 300 mg/kg
- Activity [2]: 30%

Compound: N#Cc1c(Cl)c(C#N)c(Nc2ccc(Br)cc2)c(C#N)c1Cl
- LD50 [1]: 300 mg/kg
- Activity [2]: 14%

Compound: N#Cc1c(Cl)c(C#N)c(Nc2ccc(N)cc2)c(C#N)c1Cl
- LD50 [1]: 133 mg/kg
- Activity [3]: 14%

Compound: N#Cc1c(O)c(Cl)c(Cl)c(C#N)c1Cl
- LD50 [1]: 178 mg/kg
- Activity [4]: 28%

Compound: CNc1c(Cl)c(Cl)c(C#N)c(Cl)c1C#N
- LD50 [1]: > 300 mg/kg
- Activity [2]: 22%

Compound: CCCCNc1c(Cl)c(Cl)c(C#N)c(Cl)c1C#N
- LD50 [1]: > 300 mg/kg
- Activity [2]: 17%

Compound: C=CCNc1c(Cl)c(Cl)c(C#N)c(Cl)c1C#N
- LD50 [1]: > 300 mg/kg
- Activity [2]: 17%

Compound: CCCCC(CC)CNc1c(Cl)c(Cl)c(C#N)c(Cl)c1C#N (stereo not drawn)
- LD50 [1]: > 300 mg/kg
- Activity [2]: 0%

Compound: COc1c(Cl)c(Cl)c(C#N)c(Cl)c1C#N
- LD50 [1]: 178 mg/kg
- Activity [3]: 0%

Compound: CCCOc1c(Cl)c(Cl)c(C#N)c(Cl)c1C#N
- LD50 [1]: 178 mg/kg
- Activity [3]: 8%

Compound: CCCCOc1c(Cl)c(Cl)c(C#N)c(Cl)c1C#N
- LD50 [1]: 178 mg/kg
- Activity [3]: 8%

Compound: CC(=O)Oc1c(Cl)c(Cl)c(C#N)c(Cl)c1C#N
- LD50 [1]: 237 mg/kg
- Activity [2]: 25%

Compound: CCC(=O)Oc1c(Cl)c(Cl)c(C#N)c(Cl)c1C#N
- LD50 [1]: 178 mg/kg
- Activity [2]: 11%

Compound: CCCC(=O)Oc1c(Cl)c(Cl)c(C#N)c(Cl)c1C#N
- LD50 [1]: 178 mg/kg
- Activity [4]: 14%

Compound: CC(C)C(=O)Oc1c(Cl)c(Cl)c(C#N)c(Cl)c1C#N
- LD50 [1]: 237 mg/kg
- Activity [2]: 0%

Compound: CCCCCC(=O)Oc1c(Cl)c(Cl)c(C#N)c(Cl)c1C#N
- LD50 [1]: > 300 mg/kg
- Activity [2]: 11%

Compound: CCCCC(CC)C(=O)Oc1c(Cl)c(Cl)c(C#N)c(Cl)c1C#N (stereo not drawn)
- LD50 [1]: > 300 mg/kg
- Activity [2]: 20%

Compound: CCCCCCCC(=O)Oc1c(Cl)c(Cl)c(C#N)c(Cl)c1C#N
- LD50 [1]: 178 mg/kg
- Activity [4]: 22%

Compound: N#Cc1c(Cl)c(Cl)c(OC(=O)c2ccccc2)c(C#N)c1Cl
- LD50 [1]: > 300 mg/kg
- Activity [2]: 11%

Compound: CNC(=O)Oc1c(Cl)c(Cl)c(C#N)c(Cl)c1C#N
- LD50 [1]: 178 mg/kg
- Activity [3]: 20%

Compound: CCCCNC(=O)Oc1c(Cl)c(Cl)c(C#N)c(Cl)c1C#N
- LD50 [1]: 178 mg/kg
- Activity [3]: 3%

Compound: N#Cc1ccc(Br)c(C#N)c1
- LD50 [1]: 178 mg/kg
- Activity [3]: 3%

Compound: N#Cc1cccc(C#N)c1Cl
- LD50 [1]: 300 mg/kg
- Activity [2]: 20%

Compound: N#Cc1ccc(F)c(C#N)c1
- LD50 [1]: 178 mg/kg
- Activity [4]: 25%

Compound: N#Cc1cc(C#N)c(Cl)cc1Cl
- LD50 [1]: 178 mg/kg
- Activity [4]: 5%

Compound: N#Cc1c(Cl)cc(Cl)c(C#N)c1Cl
- LD50 [1]: 100 mg/kg
- Activity [2]: 8%

Compound: N#Cc1c(Cl)c(C#N)c(Nc2ccc(Cl)cc2)c(C#N)c1Cl
- LD50 [1]: 178 mg/kg
- Activity [4]: 1%

Compound: N#Cc1c(Cl)c(C#N)c(Nc2cccc(C(F)(F)F)c2)c(C#N)c1Cl
- LD50 [1]: 237 mg/kg
- Activity [2]: 29%

Compound: N#Cc1c(Cl)c(C#N)c(Nc2ccc(Cl)c(Cl)c2)c(C#N)c1Cl
- LD50 [1]: 56 mg/kg

Compound: COc1ccc(Nc2c(C#N)c(Cl)c(C#N)c(Cl)c2C#N)cc1OC
- LD50 [1]: 178 mg/kg
- Activity [4]: 13%

Compound: CNc1c(C#N)c(Cl)c(C#N)c(NC)c1C#N
- LD50 [1]: 300 mg/kg
- Activity [2]: 20%

Compound: CCNc1c(C#N)c(Cl)c(C#N)c(NCC)c1C#N
- LD50 [1]: 300 mg/kg
- Activity [2]: 11%

Compound: CC(C)Nc1c(C#N)c(Cl)c(C#N)c(NC(C)C)c1C#N
- LD50 [1]: 300 mg/kg
- Activity [2]: 5%

Compound: N#Cc1cc(C#N)cc(C#N)c1
- LD50 [1]: 300 mg/kg
- Activity [2]: 32%

Compound: CCC(=O)Oc1c(Cl)c(Cl)c(C#N)c(Cl)c1Cl
- LD50 [1]: > 300 mg/kg
- Activity [2]: 0%

Compound: CCCC(=O)Oc1c(Cl)c(Cl)c(C#N)c(Cl)c1Cl
- LD50 [1]: > 300 mg/kg
- Activity [2]: 15%

Compound: CC(C)C(=O)Oc1c(Cl)c(Cl)c(C#N)c(Cl)c1Cl
- LD50 [1]: > 300 mg/kg
- Activity [2]: 0%

Compound: CCCCC(=O)Oc1c(Cl)c(Cl)c(C#N)c(Cl)c1Cl
- LD50 [1]: > 300 mg/kg
- Activity [2]: 2%

Compound: CCCCCC(=O)Oc1c(Cl)c(Cl)c(C#N)c(Cl)c1Cl
- LD50 [1]: > 300 mg/kg
- Activity [2]: 0%

Compound: CCC(CC)C(=O)Oc1c(Cl)c(Cl)c(C#N)c(Cl)c1Cl
- LD50 [1]: > 300 mg/kg
- Activity [2]: 11%

Compound: CCCCCCCC(=O)Oc1c(Cl)c(Cl)c(C#N)c(Cl)c1Cl
- LD50 [1]: > 300 mg/kg
- Activity [2]: 0%

Compound: CCCCC(CC)C(=O)Oc1c(Cl)c(Cl)c(C#N)c(Cl)c1Cl (stereo not drawn)
- LD50 [1]: > 300 mg/kg
- Activity [2]: 15%

Compound: CCCCCCCCCCCC(=O)Oc1c(Cl)c(Cl)c(C#N)c(Cl)c1Cl
- LD50 [1]: > 300 mg/kg
- Activity [2]: 11%

Compound: N#Cc1c(Cl)c(Cl)c(OC(=O)C(Cl)(Cl)Cl)c(Cl)c1Cl
- LD50 [1]: > 300 mg/kg
- Activity [2]: 17%

Compound: N#Cc1c(Cl)c(Cl)c(OC(=O)Cc2ccccc2)c(Cl)c1Cl
- LD50 [1]: > 300 mg/kg
- Activity [2]: 0%

Compound: N#Cc1c(Cl)c(Cl)c(OC(=O)c2ccccc2Cl)c(Cl)c1Cl
- LD50 [1]: > 300 mg/kg
- Activity [2]: 0%

Compound: N#Cc1c(Cl)c(Cl)c(OC(=O)c2ccc(Cl)c(Cl)c2)c(Cl)c1Cl
- LD50 [1]: > 300 mg/kg
- Activity [2]: 3%

Compound: CC(C)S(=O)(=O)c1c(Cl)c(Cl)c(C#N)c(Cl)c1Cl
- LD50 [1]: > 300 mg/kg
- Activity [2]: 11%

Compound: CCCCS(=O)(=O)c1c(Cl)c(Cl)c(C#N)c(Cl)c1Cl
- LD50 [1]: 237 mg/kg
- Activity [2]: 12%

Compound: CCCCCS(=O)(=O)c1c(Cl)c(Cl)c(C#N)c(Cl)c1Cl
- LD50 [1]: 237 mg/kg
- Activity [2]: 5%

Compound: CCCCCCS(=O)(=O)c1c(Cl)c(Cl)c(C#N)c(Cl)c1Cl
- LD50 [1]: 178 mg/kg
- Activity [4]: 2%

Compound: CCCCCCCCCCS(=O)(=O)c1c(Cl)c(Cl)c(C#N)c(Cl)c1Cl
- LD50 [1]: > 300 mg/kg
- Activity [2]: 0%

Compound: N#Cc1c(Cl)c(Cl)c(S(=O)(=O)CCCl)c(Cl)c1Cl
- LD50 [1]: > 300 mg/kg
- Activity [2]: 0%

Compound: N#Cc1c(Cl)c(Cl)c(S(=O)(=O)CCCCCl)c(Cl)c1Cl
- LD50 [1]: > 300 mg/kg
- Activity [2]: 15%

Compound: CCOCCS(=O)(=O)c1c(Cl)c(Cl)c(C#N)c(Cl)c1Cl
- LD50 [1]: 237 mg/kg
- Activity [2]: 23%

Compound: N#Cc1c(Cl)c(Cl)c(S(=O)(=O)CCCc2ccccc2)c(Cl)c1Cl
- LD50 [1]: 300 mg/kg
- Activity [2]: 18%

Compound: N#Cc1ccc(Br)cc1
- LD50 [1]: 237 mg/kg
- Activity [4]: 75%

Compound: N#Cc1ccccc1Cl
- LD50 [1]: > 300 mg/kg
- Activity [2]: 26%

Compound: N#Cc1ccccc1Br
- LD50 [1]: > 300 mg/kg
- Activity [2]: 19%

Compound: N#Cc1ccc(F)cc1
- LD50 [1]: > 300 mg/kg
- Activity [2]: 17%

Compound: Cc1ccc(C#N)cc1C
- LD50 [1]: > 300 mg/kg
- Activity [2]: 25%

Compound: CCNc1c(F)c(C#N)c(F)c(F)c1C#N
- LD50 [1]: 237 mg/kg
- Activity [2]: 19%

Compound: CCCCNc1c(F)c(C#N)c(F)c(F)c1C#N
- LD50 [1]: > 300 mg/kg
- Activity [2]: 14%

Compound: CCCCCCNc1c(F)c(C#N)c(F)c(F)c1C#N
- LD50 [1]: > 300 mg/kg
- Activity [2]: 11%

Compound: CCN(CC)c1c(F)c(C#N)c(F)c(F)c1C#N
- LD50 [1]: > 300 mg/kg
- Activity [2]: 0%

Compound: CCCN(CCC)c1c(F)c(C#N)c(F)c(F)c1C#N
- LD50 [1]: > 300 mg/kg
- Activity [2]: 22%

Compound: N#Cc1c(F)c(F)c(C#N)c(Nc2ccc(O)cc2)c1F
- LD50 [1]: > 300 mg/kg
- Activity [2]: 10%

Compound: N#Cc1c(Cl)c(Cl)c(C#N)c(Cl)c1Cl
- LD50 [1]: > 300 mg/kg
- Activity [2]: 13%

Compound: N#Cc1ccc(C#N)cc1
- LD50 [1]: > 300 mg/kg
- Activity [2]: 27%

Compound: N#Cc1ccc(C#N)c(Cl)c1
- LD50 [1]: > 300 mg/kg
- Activity [2]: 46%

Compound: N#Cc1ccc(C#N)c(F)c1
- LD50 [1]: > 300 mg/kg
- Activity [2]: 49%

Compound: N#Cc1cc(Cl)c(C#N)cc1Cl
- LD50 [1]: > 300 mg/kg
- Activity [2]: 22%

Compound: N#Cc1cc(F)c(C#N)cc1F
- LD50 [1]: 56 mg/kg
- Activity [2]: 32%

Compound: N#Cc1cc(Cl)c(C#N)cc1F
- LD50 [1]: > 300 mg/kg
- Activity [2]: 22%
